Measurements reported in article PMC5438088 (ChemMedChem, 2015).
Several values for one entry are separate records, joined by “and”; a condition that tells them apart may be missing. Identical values can stand only once. Like-named read-outs stand apart in the source and are kept apart here.

What was measured:
[1] = molecular target: T1, hcSHMT (Homo sapiens, UniProt P34896); assay type: binding
T1 sequence (P34896 1-483): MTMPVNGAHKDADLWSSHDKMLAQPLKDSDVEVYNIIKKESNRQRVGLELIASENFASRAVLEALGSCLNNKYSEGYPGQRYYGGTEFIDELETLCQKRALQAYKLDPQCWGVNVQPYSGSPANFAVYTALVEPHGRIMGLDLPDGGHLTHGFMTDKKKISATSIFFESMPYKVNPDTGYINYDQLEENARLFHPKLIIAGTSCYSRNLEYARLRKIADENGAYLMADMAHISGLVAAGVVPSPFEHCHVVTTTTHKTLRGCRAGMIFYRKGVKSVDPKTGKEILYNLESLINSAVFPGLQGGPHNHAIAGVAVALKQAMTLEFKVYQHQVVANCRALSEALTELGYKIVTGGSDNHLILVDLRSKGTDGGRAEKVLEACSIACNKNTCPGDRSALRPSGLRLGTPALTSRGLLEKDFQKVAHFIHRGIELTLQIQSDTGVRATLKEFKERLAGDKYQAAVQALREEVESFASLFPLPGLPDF

[2] = molecular target: T1, hcSHMT; assay: Isothermal titration calorimetry; assay type: binding; details: ITC, 25°C, 10 mM glycine
[3] = tested on: SHMT; details: cited from earlier work

Nc1nc2c(c(=O)[nH]1)C[C@@H](CCc1ccc(C(=O)N[C@@H](CCC(=O)O)C(=O)O)cc1)CN2 [Lometrexol]
inhibition mechanism ([1]; with respect to leucovorin, double reciprocal plot): competitive inhibitor
ΔH (heat of binding) [2]: 3.50 ± 0.06 kcal/mol
ΔS [2]: 38.0 cal mol^−1/deg
n (binding stoichiometry) ([2]; listed as LTX): 0.53±0.05
Kd [2]: 2000 nM and 1990 nM

Nc1nc2[nH]cc(CCc3ccc(C(=O)N[C@@H](CCC(=O)O)C(=O)O)cc3)c2c(=O)[nH]1 [Pemetrexed, (S)-2-[4-[2-(4-amino-2-oxo-3,5,7-triazabicyclo[4.3.0]nona-3,8,10-trien-9-yl)ethyl]benzoyl] aminopentanedioic acid]
inhibition of hcSHMT ([3]; hcSHMT): low micromolar inhibitor

Nc1nc2c(c(=O)[nH]1)N(C=O)C(CNc1ccc(C(=O)N[C@@H](CCC(=O)O)C(=O)O)cc1)CN2 (stereo partly shown) [Leucovorin, 5-formyltetrahydrofolate]
Kd [1]: 1500 nM
n (binding stoichiometry) [2]: 0.51±0.03
ΔH (heat of binding) [2]: 4.64 ± 0.39 kcal/mol
ΔS [2]: 42.4 cal mol^−1/deg
Kd [2]: 1360 ± 490 nM
inhibition of SHMT ([3]; both SHMT isoforms): potent, low-micromolar inhibitor

CC1(C)N=C(N)N=C(N)N1c1ccc(CCCCc2ccc(S(=O)(=O)F)cc2Cl)c(Cl)c1.CCS(=O)(=O)O [NSC127755]
inhibition of SHMT [3]: irreversible inhibitor
